From ChEMBL document CHEMBL1148936, “Benzoic acid derivatives from Piper species and their fungitoxic activity against Cladosporium cladosporioides and C. sphaerospermum” (2004) come the findings set out here.

Assay [1] has as its system Cladosporium cladosporioides. The assay is described as follows: Antifungal activity against Cladosporium cladosporioides assessed as minimum concentration required to inhibit growth after 72 hrs by TLC. It counts as functional.
The test system of assay [2] is Cladosporium sphaerospermum. The assay can be described thus: Antifungal activity against Cladosporium sphaerospermum assessed as minimum concentration required to inhibit growth after 72 hrs by TLC. It counts as functional.
Assay [3] relates to Cladosporium cladosporioides. The assay can be described thus: Antifungal activity against Cladosporium cladosporioides at 100 ug after 72 hrs by TLC. It is filed as functional, organism-based.
Assay [4] concerns Cladosporium sphaerospermum. The assay can be described thus: Antifungal activity against Cladosporium sphaerospermum at 100 ug after 72 hrs by TLC. It is filed as functional, organism-based.

Active and inactive are the calls of the source. The calls are words filed in the database; no cut-off is given here.

In the case of `COC(=O)c1cc(C(=O)C=C(C)C)ccc1OC` [ADUNCUMENE], the Activity in assay [1] and in assay [2] was 5 µg each time.
`COc1cc(O)c(C(=O)CCc2ccccc2)c(O)c1`: the outcome in assay [3] and in assay [4] was inactive.
On to `COC(=O)c1ccc(O)c(CC=C(C)C)c1`, for which the Activity in assay [1] and in assay [2] was 1 µg in each case.
`COC(=O)c1cc2c(c(CC=C(C)C)c1)OC(C)(C)C=C2`: the Activity in assay [1] and in assay [2] was 0.1 µg each time.
As for `CC(C)=CCCC(C)(O)CC(=O)c1cc(C(=O)O)ccc1O` (configuration not stated) [CRASSINERVIC ACID], the Activity in assay [1] and in assay [2] was 0.5 µg throughout.
`Clc1ccc(COC(Cn2ccnc2)c2ccc(Cl)cc2Cl)c(Cl)c1` (configuration not stated) [MICONAZOLE]: the Activity in assay [1] and in assay [2] was 1 µg in each case.
For the molecule `COc1ccc(C(=O)O)cc1C/C=C(\C)CCC=C(C)C`, the result in assay [3] and in assay [4] was inactive.
Regarding `C=C(C)C(O)Cc1cc(C(=O)OC)ccc1O` (configuration not stated), the Activity in assay [1] and in assay [2] was 5 µg in each case.
For `CC(C)=CCC/C(C)=C/Cc1cc(C(=O)O)ccc1O`, the Activity in assay [1] and in assay [2] was 5 µg in each case.
With `COC(=O)c1ccc(O)c([C@@H]2c3c(OC)cc(O)c(C(=O)CCc4ccccc4)c3O[C@H]2C(C)(C)O)c1`, the outcome in assay [3] and in assay [4] was inactive.
In the case of `COC(=O)c1ccc(O)c(C(=O)C=C(C)C)c1`, the outcome in assay [3] and in assay [4] was inactive.
Consider NYSTATIN, for which the Activity in assay [1] and in assay [2] was 1 µg each time.
On to `CC1(C)C=Cc2cc(C(=O)O)ccc2O1`, for which the Activity in assay [1] and in assay [2] was 5 µg each time.
With `CC(C)=CCC/C(C)=C/C(=O)c1cc(O)ccc1O`, the Activity in assay [1] and in assay [2] was 1 µg in each case.
On to `CC(C)=CCC[C@@]1(C)C=Cc2cc(C(=O)O)cc(CC=C(C)C)c2O1`, for which the Activity in assay [1] and in assay [2] was 10 µg throughout.
As to `COc1cc(O)c2c(c1)O[C@H](c1ccc(O)cc1)CC2=O` [SAKURANETIN], the Activity in assay [1] and in assay [2] was 1 µg each time.
`O=C1C[C@@H](c2ccccc2)Oc2cc(O)cc(O)c21` [PINOCEMBRIN]: the Activity in assay [1] and in assay [2] was 1 µg each time.
As for `COC(=O)c1ccc2c(c1)C=CC(C)(C)O2`, the Activity in assay [1] and in assay [2] was 5 µg each time.
Consider `COC(=O)c1ccc(O)c(CC(O)C(C)(C)O)c1` (configuration not stated) [HOSTMANIANE], for which the Activity in assay [1] and in assay [2] was 0.5 µg throughout.
For `COC(=O)c1cc(O)c2c(c1)C=CC(C)(C)O2`, the Activity in assay [1] and in assay [2] was 5 µg each time.
Take `COc1cc(CCC(=O)O)cc(OC)c1OC`: the Activity in assay [1] and in assay [2] was 10 µg each time.
